From patent US8598145B2, “Mitochondrially delivered anti-cancer compounds” (priority 2008, dated 2013) come the findings set out here.

Some results are limits rather than exact numbers.

Common to all, as to assay type: cell-based, human
In one assay the test system is EAhy926. In words: MTT viability assay (IC50). The text has this:
(§1) The following cell lines used in this study were obtained from ATCC, unless specified otherwise: Human T lymphoma cells Jurkat, human mesothelioma cells Meso-I, MM-BI, Ist-Mes, Ist-Mes-2 (Pass, H. I. et al. Characteristics of nine newly derived mesothelioma cell lines. Ann. Thorac. Surg. 59, 835-844 (1995)), human breast cancer cells MCF-7 (erbB2-low) and MDA-MB-453 (erbB2-high), human colorectal cells HCT-116, human hepatocarcinoma cells Huh-7, mouse mesothelioma cells AE17 (Jackaman, C. et al. IL-2 intratumoral immunotherapy enhances CD8+ T cells that mediate destruction of tumor cells and tumor-associated vasculature: a novel mechanism for IL-2. J. Immunol. 171, […] (2003), human non-malignant mesothelial cells Met-5A, […] (Claycomb, W. C. et al. HL-1 cells: a cardiac muscle cell line that contracts and retains phenotypic characteristics of the adult cardiomyocyte. Proc. Natl. Acad. Sci. USA 95, 2979-2984 […]) and H9c2, and the human endothelial-like cells EAhy926 (Edgell, C. J., McDonald, C. C. & Graham, J. B. Permanent cell line expressing human factor VIII-related antigen established by hybridization. Proc. Natl. Acad. Sci. USA 80, 3734-3737 (1983)). Jurkat cells were grown in the RPMI medium while DMEM was used for other malignant cell lines and for Met-5A cells, supplemented with 10% FCS and antibiotics. HL-1 cells, maintained in fibronectin/gelatine-coated dishes, were grown in the Claycomb medium supplemented with noradrenalin (Claycomb, W. C. et al. HL-1 cells: a cardiac muscle cell line that contracts and retains phenotypic characteristics of the adult cardiomyocyte. Proc. Natl. Acad. Sci. USA 95, 2979-2984 […]), EAhy926 cells were grown in complete DMEM supplemented with HAT (Edgell, C. J., McDonald, C. C. & Graham, J. B. Permanent cell line expressing human factor VIII-related antigen established by hybridization. Proc. Natl. Acad. Sci. USA 80, 3734-3737 (1983)). Cells deficient in mtDNA (ρ^0 phenotype) were prepared as detailed in Weber, T. et al., (Mitochondria play a central role in apoptosis induced by α-tocopheryl succinate, an agent with anticancer activity. Comparison with receptor-mediated pro-apoptotic signaling. Biochemistry 42, 4277-4291 (2003)). Acquisition of the ρ^0 phenotype was confirmed by lack of expression by the cells of the mtDNA-encoded cytochrome c oxidase subunit II (COXII not shown). Chinese hamster lung fibroblasts deficient in complex I (B10 cells) (See, B. B. et al. Molecular remedy of complex I defects: rotenone-insensitive internal NADH-quinone oxidoreductase of Saccharomyces cerevisiae mitochondria restores the NADH oxidase activity of complex I-deficient mammalian cells. Proc. Natl. Acad. Sci. USA 95, 9167-9171 (1998)) and complex II (CybL^−/−; B9 cells) (Oostveen, F. G., Au, H. C., Meijer, P. J. & Scheffler, I. E. A Chinese hamster mutant cell line with a defect in the integral membrane protein CII-3 of complex II of the mitochondrial electron transport chain. J. Biol. Chem. 270: 26104-26108 (1995)) as well as the parental cells (B1 cells) (Oostveen, F. G., Au, H. C., Meijer, P. J. & Scheffler, I. E. A Chinese hamster mutant cell line with a defect in the integral membrane protein CII-3 of complex II of the mitochondrial electron transport chain. J. Biol. Chem. 270: 26104-26108 (1995)) were grown in DMEM with 10% FCS, antibiotics, 10 mg/ml glucose and non-essential aminoacids.
(§2) Toxicity of α-TOS, VE11S (“VES”), MitoVE3S, MitoVE5S, MitoVE7S, MitoVE9S, MitoVE11S (“MitoVES”), MitoVE11AE (“MitoVEAE”), MitoVE11F (“MitoVEF”), MitoVE11M (“MitoVEM”), and VES4TPP towards cancer cells was assessed on the basis of IC50, as detailed in Turanek, J., et al. ((2008). Liposomal formulation of vitamin E analogs as an efficient and selective anti-cancer treatment. Clin. Cancer Res. (submitted)). […]
In general terms: Formazan colour is commonly taken as a measure of viable cells.

Another assay concerns HCT-116. Kind of assay: MTT viability assay (IC50). The note with it: HCT-116, ~60% confluency.
Excerpt: as §1, §2

For another assay, the system named is Ist-Mes-2. Kind of assay: MTT viability assay (IC50). The note with it: Ist-Mes-2, ~60% confluency.
Excerpt: as §1, §2

The next assay deals with Jurkat. Kind of assay: MTT viability assay (IC50).
Excerpt: as §1, §2

The test system of a further assay is MCF-7. Kind of assay: MTT viability assay (IC50). Conditions: MCF-7, ~60% confluency.
Excerpt: as §1, §2

The subject of the next assay is MDA-MB-453. In words: MTT viability assay (IC50). Conditions: MDA-MB-453, ~60% confluency.
Excerpt: as §1, §2

For another assay, the system named is MM-BI. Kind of assay: MTT viability assay (IC50). Conditions: ~60% confluency.
Excerpt: as §1, §2

The test system of the next assay is Meso-2. Kind of assay: MTT viability assay (IC50). The note with it: Meso-2, ~60% confluency.
Excerpt: as §1, §2

Assay [1] has as its system Bax/Bak double knockout Jurkat cell line. Kind of assay: Apoptosis assay of FIG. 3B. Conditions: α-TOS 50 μM, MitoVES 5 μM. The procedure: 3B—Parental, Bax^−/− and […] Jurkat cells were exposed to α-TOS (T) at 50 μM and MitoVES (M) 5 μM, and apoptosis assessed.
Toxicity of α-TOS, VE11S (“VES”), MitoVE3S, MitoVE5S, MitoVE7S, MitoVE9S, MitoVE11S (“MitoVES”), MitoVE11AE (“MitoVEAE”), MitoVE11F (“MitoVEF”), MitoVE11M (“MitoVEM”), and VES4TPP towards cancer cells was assessed on the basis of IC50, as detailed in Turanek, J., et al. ((2008). Liposomal formulation of vitamin E analogs as an efficient and selective anti-cancer treatment. Clin. Cancer Res. (submitted)). Apoptosis was assessed using the Annexin V method (Weber, T. et al. Mitochondria play a central role in apoptosis induced by α-tocopheryl succinate, an agent with anticancer activity. Comparison with receptor-mediated pro-apoptotic signaling. Biochemistry 42, 4277-4291 (2003)) and dissipation of the mitochondrial inner transmembrane potential was estimated using the polychromatic probe JC-1 (Molecular Probes) (Weber, T. et al. Mitochondria play a central role in apoptosis induced by α-tocopheryl succinate, an agent with anticancer activity. Comparison with receptor-mediated pro-apoptotic signaling. Biochemistry 42, 4277-4291 (2003)).

[2] abbreviates: EAhy926 treated at 100% confluency (top lines).
Setting [3] is: EAhy926 treated at ~50% confluency (bottom lines).
[4] abbreviates: Jurkat, treated at 0.5 × 10^6 per ml, MTT viability curves.
Setting [5] is: Table VI: Jurkat 0.5 × 10^6 per ml, analogs added as EtOH solution, MTT.

In general, IC50 refers to the concentration needed to halve the response being measured. Lower therefore signals inhibition by little substance. Take `Cc1c(C)c2c(c(C)c1OC(=O)CCC(=O)O)CC[C@@](C)(CCC[C@H](C)CCC[C@H](C)CCCC(C)C)O2` [α-TOS, α-tocopheryl succinate, reference compound]: the IC50 in the assay on EAhy926 (setting [2]) was > 100 µM; with EAhy926 (setting [3]), 9.5 ± 2.7 µM; with HCT-116 it was 31 ± 6 µM; with Ist-Mes-2, 21 ± 3 µM; in the assay with Jurkat (setting [4]), 18 ± 3 µM; in the assay on Jurkat (setting [5]), 18 ± 3 µM. In addition, the IC50 with MCF-7 was 22 ± 4 µM; in the assay with MDA-MB-453, 28 ± 5 µM; in the assay with MM-BI, 26 ± 4 µM; with Meso-2, 29 ± 5 µM. Moreover, in [1], the “apoptosis in Bax/Bak double deficient Jurkat cells” value is recorded as “still mediates some level of killing”.
Take `Cc1c(C)c2c(c(C)c1OC(=O)CCC(=O)[O-])CCC(C)(CCCCCCCCCCC[P+](c1ccccc1)(c1ccccc1)c1ccccc1)O2` (stereo not shown) [MitoVE11S]: the IC50 in the assay on EAhy926 (setting [2]) was 32 ± 6 µM; with EAhy926 (setting [3]), 0.7 ± 0.2 µM; with HCT-116 it was 2.8 ± 0.8 µM; with Ist-Mes-2 it was 1.1 ± 0.25 µM; in the assay on Jurkat (setting [4]) it was 0.48 ± 0.1 µM; in the assay on Jurkat (setting [5]) it was 0.48 ± 0.1 µM. For the same compound, the IC50 in the assay on MCF-7 came out at 1.9 ± 0.5 µM; with MDA-MB-453 it was 3.3 ± 0.7 µM; in the assay on MM-BI, 1.4 ± 0.3 µM; in the assay with Meso-2 it was 2.4 ± 0.5 µM. Further, in [1], the “apoptosis in Bax/Bak double deficient Jurkat cells” value is “extremely resistant”.
